Test results as given in patent US20260130932A1, “NOVEL COMBINATION OF RIFAXIMIN AND CLARITHROMYCIN FOR TREATING MULTIDRUG-RESISTANT MYCOBACTERIUM ABSCESSUS” (priority 2022, published 2026).
Values joined by “and” are separate entries in the source; they are usually repeats but may differ in a detail not shown here. Identical values can stand only once. Counter-ions that a name gives are not always drawn.

How the values were obtained:
[1] = tested on: M. abscessus strain M422; assay: Single-concentration assay with and without clarithromycin (hit validation); assay type: cell-based, Mycobacterium abscessus; conditions: for % inhibition with 0.5 μg/ml Clr: compound combined with clarithromycin; for % inhibition with compound alone: without clarithromycin
Procedure: (§1) For checkerboard synergy assay, 3 M. abscessus strains were used: M. abscessus ATCC 19977, M. abscessus strains M422 and M110, while bactericidal activity determination and the zebrafish study were performed with M. abscessus ATCC 19977. All three strains of M. abscessus harbor the inducible clarithromycin resistance-conferring erm(41) T28 sequevar. M. abscessus strain M422 and M110 were provided by Dr. Jeanette Teo, National University Hospital, Singapore (Chew K L, et al., 2017. J Med Microbiol 66: 1443-1447). M. abscessus ATCC 19977 and M. avium ATCC 700898 were acquired from American Type Culture Collection (ATCC).
Primary screening was carried out in 96-well flat-bottom Corning Costar cell culture plates at 50 μM compound along with 4 μg/ml of Clr in a starting inoculum of pre-induced M. abscessus cells at OD600 of 0.005 in a final volume of 100 μl. The plates were put in an airtight container with moist paper towels and incubated for 4 d at 30° C. The cultures in the wells were resuspended before OD600 was read in a BioTek Synergy 4 plate reader.
To start the validation process, the top 10 compounds with >90% growth inhibition were chose to perform a single-concentration assay, with and without clarithromycin. Finally, the inventors obtained 7 compounds that potentiated Clr efficacy.

[2] = tested on: M. avium ATCC 700898 (uninduced); assay: Checkerboard synergy assay; assay type: cell-based, Mycobacterium avium; conditions: Mycobacterium avium, ATCC700898; read-out: MIC90
Procedure: (§2) With Rfx identified as the best potentiator of Clr activity, the interaction between Rfx and Clr was investigated by a checkerboard synergy approach using a broth microdilution method performed in 96-well plates. To provide a classification of the combined antibiotics based on the fractional inhibitory concentration index (FICI), this assay applied the combination of Clr and Rfx in concentrations of 0-64 μg/ml by 2-fold serial dilutions along the abscissa and ordinate, respectively. The FICI was calculated by summing the FIC of Rfx and the FIC of Clr. FIC of Clr is the MIC of Clr in the presence of Rfx divided by MIC of Clr alone. FIC of Rfx was similarly calculated.
As both M. abscessus and M. avium are the main organism groups causing pulmonary NTM (Lim A Y H, et al., 2018. BMC Pulm Med 18 (1):85; Tan Y, et al., 2018. BMC Pulm Med 18 (1): 168), the inventors tested the combination of Clr and Rfx against M. avium in the checkerboard assay as well. With a FICI of 0.563, the interaction between Clr and Rfx was additive in M. avium.

[3] = tested on: M. abscessus ATCC 19977, M. abscessus strains M422 and M110; assay: Checkerboard synergy assay, statements on all 3 M. abscessus strains; assay type: cell-based, Mycobacterium abscessus; conditions: pre-induced M. abscessus strains (FIG. 4, Table 2)
Procedure: as §1, §2
(§3) To characterize the interaction between Clr and Rfx, checkerboard synergy assays were performed on pre-induced Clr-resistant M. abscessus. The fractional inhibitory concentration index (FICI) obtained from the checkerboard assay defines whether the interaction between the two compounds is either synergistic (FICI≤0.5), additive (0.5<FICI≤1.0), indifferent (1.0<FICI≤4.0), or antagonistic (FICI >4.0) (Noel D J, Keevil C W, Wilks S A. 2021. MBio 12).

[4] = tested on: M. abscessus ATCC 19977; assay: Zebrafish embryo infection model; assay type: in vivo, zebrafish (Denio rerio); conditions: Clr alone up to 74.8 μg/ml (100 μM), immersion for 4 days (FIG. 6A)
Description: To visualize the bacterial infection in the zebrafish (Denio rerio), a fluorescent strain of M. abscessus ATCC 19977 containing pJKD2893:mScarlet was generated. The pJKD2893 plasmid backbone was a kind gift from Professor Timothy Stinear. The gene expressing the fluorescent protein mScarlet was amplified from μMRE135-mScarlet (Addgene #118489, Mitja Remus-Emsermann lab). The amplification product was annealed by Gibson cloning with the pJKD2893 backbone amplified from a sample of pJKD2893. The resulting plasmid, termed pJKD2893:mScarlet, was electroporated into M. abscessus ATCC 19977 at a culture density equivalent to OD600˜20 using a BioRad GenePulser Xcell set at 2.5 kV, 25 uF, and 1,000Ω. […] Colonies carrying the plasmid were identified by their fluorescence. […]
Preparation of M. abscessus Inoculum and Zebrafish Infections Cultures of M. abscessus-pJKD2893:mScarlet in 7H9 media supplemented with 50 μg/ml kanamycin were grown to OD600 of 0.2-0.3 and concentrated to OD600 of 1 in 0.1% PBS-Tween-20. […] The actual CFU in the inoculum was determined a posteriori by injecting into 50 μl 0.1% PBS-Tween-20 and streaking on a plate. […]
Larvae were harvested to assess the bacterial load at 5 d post-infection using a slightly modified version of the Kremer lab method (Bernut et al., Antimicrob Agents Chemother 58: 4054-4063). […] Fluorescent colonies were counted after 5-6 days. […]

[5] = tested on: M. abscessus ATCC 19977 (pre-induced); assay: microbe, parasite or virus in culture; assay type: cell-based, Mycobacterium abscessus
Procedure: The FICI was calculated by summing the FIC of Rfx and the FIC of Clr. FIC of Clr is the MIC of Clr in the presence of Rfx divided by MIC of Clr alone. FIC of Rfx was similarly calculated.
as §3

[6] = clarithromycin 0 μg/ml, partner antibiotic 1 μg/ml
[7] = clarithromycin 0 μg/ml, partner antibiotic 2 μg/ml
[8] = clarithromycin 0 μg/ml, partner antibiotic 4 μg/ml
[9] = clarithromycin 0 μg/ml, partner antibiotic 8 μg/ml
[10] = clarithromycin 0 μg/ml, partner antibiotic 16 μg/ml
[11] = clarithromycin 0 μg/ml, partner antibiotic 32 μg/ml
[12] = clarithromycin 0 μg/ml, partner antibiotic 64 μg/ml

Row | Compound | % inhibition with 0.5 μg/ml Clr [1] [%] | % inhibition with compound alone [1] [%] | Percentage of bacterial growth [5, 6] [%] | Percentage of bacterial growth [5, 7] [%] | Percentage of bacterial growth [5, 8] [%] | Percentage of bacterial growth [5, 9] [%] | Percentage of bacterial growth [5, 10] [%] | Percentage of bacterial growth [5, 11] [%] | Percentage of bacterial growth [5, 12] [%] | other results
1 | OB1OCc2cc(F)ccc21 [AN-2690] | 96.7 | 80.4 |  |  |  |  |  |  |  | 
2 | CC(=O)OC[C@H]1O[C@@H]([S-])[C@H](OC(C)=O)[C@@H](OC(C)=O)[C@@H]1OC(C)=O.CCP(CC)CC.[Au+] [Auranofin] | 98.5 | 86.9 |  |  |  |  |  |  |  | 
3 | CO/N=C(\C(=O)N[C@@H]1C(=O)N2C(C(=O)O)=C(COC(C)=O)CS[C@H]12)c1csc(N)n1 [Cefotaxime (sodium salt), Cefotaxime] | 98.5 | 86.7 |  |  |  |  |  |  |  | 
4 | CC[C@H]1OC(=O)[C@H](C)[C@@H](O[C@H]2C[C@@](C)(OC)[C@@H](O)[C@H](C)O2)[C@H](C)[C@@H](O[C@@H]2O[C@H](C)C[C@H](N(C)C)[C@H]2O)[C@](C)(OC)C[C@@H](C)C(=O)[C@H](C)[C@@H](O)[C@]1(C)O [Clarithromycin, clarithromycin] |  |  |  |  |  |  |  |  |  | MIC90 [2]: < 0.1 µg/mL; reduction of the MIC of Clr when used in combination with Rfx [3]: at least 16 fold; effect on bacterial load [4]: unable to reduce bacterial load; Percentage of bacterial growth ([5]; clarithromycin 1 μg/ml, partner antibiotic 0 μg/ml): 80.1% and 116.9% and 119.5% and 108.3% and 97.8% and 90.2% and 95.5%; Percentage of bacterial growth ([5]; clarithromycin 2 μg/ml, partner antibiotic 0 μg/ml): 80.6% and 99.5% and 102.2% and 98.9% and 80.2% and 84.8% and 96.8%; Percentage of bacterial growth ([5]; clarithromycin 4 μg/ml, partner antibiotic 0 μg/ml): 86.2% and 113.2% and 103.4% and 117.2% and 82.7% and 78.4% and 93.3%; Percentage of bacterial growth ([5]; clarithromycin 8 μg/ml, partner antibiotic 0 μg/ml): 76.2% and 102.8% and 93.2% and 108.1% and 71.4% and 97.4% and 92.9%; Percentage of bacterial growth ([5]; clarithromycin 16 μg/ml, partner antibiotic 0 μg/ml): 64.0% and 109.5% and 86.1% and 101.8% and 72.3% and 89.6% and 89.7%; Percentage of bacterial growth ([5]; clarithromycin 32 μg/ml, partner antibiotic 0 μg/ml): 77.4% and 84.3% and 83.8% and 115.7% and 59.0% and 98.2% and 95.4%
5 | CO[C@@H]1[C@@H](OC(N)=O)[C@@H](O)[C@H](Oc2ccc3c(O)c(NC(=O)c4ccc(O)c(CC=C(C)C)c4)c(=O)oc3c2C)OC1(C)C [Novobiocin (Sodium), Novobiocin] | 99.7 | 84.1 |  |  |  |  |  |  |  | 
6 | CC(=O)NC[C@H]1CN(c2ccc(N3CCSCC3)c(F)c2)C(=O)O1 [Sutezolid] | 92.8 | 80.4 |  |  |  |  |  |  |  | 
7 | Cn1nnc(-c2ccc(-c3ccc(N4C[C@H](CO)OC4=O)cc3F)cn2)n1 [Tedizolid] | 99.1 | 85.2 |  |  |  |  |  |  |  | 
8 | C[C@@H](O)[C@H]1C(=O)N2C(C(=O)O)=C(SCCN=CN)C[C@H]12 [imipenem] |  |  | 86.9 | 93.4 | 58.5 | 78.5 | 62.1 | 38.3 | 16.6 | 
9 | COc1c(N2C[C@@H]3CCCN[C@@H]3C2)c(F)cc2c(=O)c(C(=O)O)cn(C3CC3)c12 [moxifloxacin] |  |  | 107.8 | 122.8 | 86.4 | 51.2 | 13.4 | 7.4 | 0.6 | 
10 | CN(C)c1cc(NC(=O)CNC(C)(C)C)c(O)c2c1C[C@H]1C[C@H]3[C@H](N(C)C)C(O)=C(C(N)=O)C(=O)[C@@]3(O)C(O)=C1C2=O [tigecycline] |  |  | 64.2 | 74.2 | 77.8 | 67.0 | 39.3 | 22.4 | 10.1 | concentration at which synergistic effects with clarithromycin are exhibited ([5]; Table 3): ≥ 16 µg/mL; FICI ([5]; clarithromycin with a known partner antibiotic, each 0-64 μg/ml): 0.25
11 | CN[C@H](CC(C)C)C(=O)N[C@H]1C(=O)N[C@@H](CC(N)=O)C(=O)N[C@H]2C(=O)N[C@H]3C(=O)N[C@H](C(=O)N[C@H](C(=O)O)c4cc(O)cc(O)c4-c4cc3ccc4O)[C@H](O)c3ccc(c(Cl)c3)Oc3cc2cc(c3O[C@@H]2O[C@H](CO)[C@@H](O)[C@H](O)[C@H]2O[C@H]2C[C@](C)(N)[C@H](O)[C@H](C)O2)Oc2ccc(cc2Cl)[C@H]1O [vancomycin] |  |  | 103.7 | 102.0 | 105.7 | 91.7 | 90.8 | 86.6 | 83.1 | 
12 | oritavancin diphosphate |  |  | 68.0 | 59.1 | 51.1 | 46.8 | 40.9 | 32.2 | 26.1 | 
